Patent US9597391B2, “Cyclic-dinucleotides and its conjugates as adjuvants and their uses in pharmaceutical compositions” (HELMHOLTZ_ZENTRUM FUER INFEKTIONSFORSCHUNG GMBH, priority 2005, dated 2017)
“Also recorded” adds a separate entry of the source.

What was measured:
[1] = tested on: BALB/c (H-2d) mice; test: Serum β-gal-specific IgG ELISA after i.n. or s.c. immunization with β-gal plus adjuvant; format: in vivo; conditions: for β-gal specific IgG titer in sera, i.n. administration: β-gal 30 μg/dose with or without adjuvant 10 μg, end point titers (FIG. 11; FIG. 2)
Procedure: Experimental protocol: six-eight weeks-old female BALB/c (H-2d) mice were purchased from Harlan Winkelmann GmbH (Borchen, Germany) and treated in accordance with local and European Community guidelines. Groups of 5 mice each were immunized on day 1, 14 and 28 with 30 μg of β-gal (Boehringer, Mannheim, Germany), alone or as an admixture with 10 μg c-diGMP or with 10 μpg c-diAMP. For intranasal (i.n.) immunization, 10 μl were applied to each naris, whereas for the s.c. injection β-gal with or without c-diGMP or c-diAMP was resuspended in a volume of 20 μl PBS per animal. Serum samples were collected at day 38 after immunization and stored at −20° C. prior to determination of β-gal-specific antibodies. 96-well Nunc-Immuno MaxiSorp assay plates (Nunc, Roskilde, Denmark) were coated with 100 μl of β-gal (Boehringer, Mannheim, Germany) at 5 μg/ml in 0.05 M carbonate buffer (pH 8.2) per well. Serial two-fold dilutions of sera in PBS with 1% BSA and 0.05% Tween 20 were added (100 μl/well), and plates incubated for 16h at 37° C. After washing, biotinylated γ-chain-specific goat anti-mouse IgG (Sigma Chemie, Deisenhofen, Germany) was added, and plates were incubated for an additional 1 h at 37° C. After four washes, 100 μl of peroxidase-conjugated streptavidin (Pharmingen) was added to cells and plates incubated at 37° C. for 30 min. After four washes, reactions were developed with ABTS in 0.1 M citrate-phosphate buffer (pH 4.35) containing 0.01% H2O2. Results for c-diGMP are shown as OD405 values after serial two-fold dilutions (FIG. 2). […] The effect of c-diGMP as an adjuvant was independent of the route of administration.
In contrast, in the presence of c-diAMP, i.n. administration of β-gal induced very high titers of specific IgG in all mice with titers higher than 500,000 (FIG. 11).
In view of the above in vitro results, additional in vivo studies have been conducted. […] Thus, the capacity of c-diGMP and c-diAMP, respectively, to stimulate efficient humoral immune responses was evaluated, by determining the serum titers of β-gal-specific antibodies in vaccinated mice.

[2] = tested on: spleen cells; test: ELISPOT of cytokine producing spleen cells from vaccinated mice; format: in vivo; conditions: for expression of various cytokines: administered as an adjuvant (FIG. 10); for splenic IL-2 producing cells / splenic IL-4 producing cells: i.n. and s.c. route, restimulation with β-Gal protein; for antigen-specific IFNγ secreting cells / antigen-specific IL-2 secreting cells / antigen-specific IL-4 secreting cells: mice receiving adjuvant; for number of splenic IFNγ producing cells, parenteral vaccination: s.c., restimulation with MHC class I-restricted β-Gal peptide (CD8 epitope) (FIG. 10)
Procedure: Experimental protocol: Spleens from vaccinated mice were removed and pooled for analysis of cellular immune responses. The protocol for vaccination was identical to the protocol described in Example 2. Cells were grown in RPMI 1640 supplemented with 10% fetal calf serum, 100 U/ml of penicillin, 50 μg/ml of streptomycin, 5×10^−5 M 2-mercaptoethanol and 1 mM L-glutamine (GIBCO BRL, Karlsruhe, Germany) and maintained at 37° C. in a humidified 5% CO2 atmosphere. […]
For coating ELISPOT plates, said plates were incubated with 100 μl/well of purified capture antibody (10 μg/ml in coating buffer) at 4° C. overnight. After 6× washing steps, the plates were blocked with 200 μl/well of complete RPMI-1640 at room temperature for 1 hour. The activated cells were seeded at 100 μl per well and incubate at 37° C., in a 5% CO2 humidified incubator for 24 hours or 48h hours. After 5× washing steps with washing buffer and 1× step with distilled water, 100 μl/well of the biotinylated detection antibody with a concentration of 1 μg/ml in Assay Diluent was added and incubated at room temperature for 2 hrs. After further washing steps 100 μl/well of the AV-HRP at 1/1000 dilution in Assay Diluent was added and incubated at room temperature for 30 minutes. After further washing steps 100 μl/well of AEC Substrate Solution was added and developed at room temperature for 10-60 minutes until visible spots appeared. After washing steps with (3×) with 200 μl/well distilled water, the plates were air-dried and analyzed by counting the spots by an ELISPOT reader. Each concentration was tested in triplicates.

[3] = tested on: re-stimulated spleen cells; test: Cytokines in supernatants of in vitro re-stimulated spleen cells by cytometric bead array; format: in vivo, mice; conditions: for IL-6 secretion of re-stimulated spleen cells: versus β-Gal without adjuvant (FIGS. 8 and 9); for IFNγ secretion of re-stimulated spleen cells: versus β-Gal without adjuvant, c-diGMP data from i.n. immunized mice (FIG. 7, FIG. 9)
Procedure: Experimental protocol: Spleens from mucosal (i.n.) or parenteral (s.c.) vaccinated mice were removed and pooled for analysis of cellular immune responses. The protocol for vaccination was identical to the protocol described in Example 2. Cells were grown in RPMI 1640 supplemented with 10% fetal calf serum, 100 U/ml of penicillin, 50 μg/ml of streptomycin, 5×10^−5 M 2-mercaptoethanol and 1 mM L-glutamine (GIBCO BRL, Karlsruhe, Germany) and maintained at 37° C. in a humidified 5% CO2 atmosphere. Spleen cell suspensions were adjusted to 5×10^6 cells/ml in complete medium, cells were seeded with 100 μl per well in a flat-bottomed 96-well microtiter plate (Nunc) and plates were incubated for 4 days in the presence of different concentrations of soluble β-gal.
To characterize the type of Th response stimulated following immunization, the content of IFNγ, IL-6, IL-10, IL-12 (for c-diAMP only), MCP-1, and TNFα was measured in supernatants from in vitro re-stimulated spleen cells (FIG. 7 and 8 for c-diGMP and FIG. 9 for c-diAMP) by the Cytometric Bead Array. Culture supernatants from proliferating cells were collected on days 2 and 4, and stored at −70° C. Determination of IFNγ, TNFα, IL-6, IL-10, IL-12, and MCP-1 was performed by cytometric bead array (CBA) analysis using the commercial kit from BectonDickinson, according to the manufacturer's instructions or with commercially available ELISA systems. For CBA analysis, a standard curve was generated for each cytokine by using the corresponding recombinant murine cytokines (Pharmingen). Probes were incubated at room temperature for additional 2h. The probes were analyzed subsequently by flow cytometry as described in the protocol of BD.

Nc1ncnc2c1ncn2[C@@H]1O[C@@H]2COP(=O)(O)O[C@H]3[C@@H](O)[C@H](n4cnc5c(N)ncnc54)O[C@@H]3COP(=O)(O)O[C@H]2[C@H]1O [c-diAMP, cyclic bis(3′-5′)diadenylic acid]
β-gal specific IgG titer in sera, i.n. administration [1]: higher than 500,000
expression of various cytokines [2]: increased expression
splenic IL-2 producing cells [2]: strong expression
splenic IL-4 producing cells [2]: strong expression
antigen-specific IFNγ secreting cells [2]: increased in number
antigen-specific IL-2 secreting cells [2]: increased in number
antigen-specific IL-4 secreting cells [2]: increased in number
number of splenic IFNγ producing cells, parenteral vaccination [2]: increment
type of Th response induced ([3]; mice immunized with β-gal plus adjuvant): balanced Th1/Th2 response
TNFα secretion of re-stimulated spleen cells ([3]; versus β-Gal without adjuvant (FIG. 9)): enhanced secretion
IL-6 secretion of re-stimulated spleen cells [3]: same results
IFNγ secretion of re-stimulated spleen cells [3]: enhanced secretion

Nc1nc2c(ncn2[C@@H]2O[C@@H]3COP(=O)(O)O[C@H]4[C@@H](O)[C@H](n5cnc6c(=O)[nH]c(N)nc65)O[C@@H]4COP(=O)(O)O[C@H]3[C@H]2O)c(=O)[nH]1 [c-diGMP, cyclic bis(3′-5′)diguanylic acid]
β-gal specific IgG titer in sera ([1]; 30 μg β-gal + 10 μg adjuvant, day 1, 14, 28, serum day 38, independent of route (i.n., s.c.), FIG. 2, FIG. 3): remarkably increased
β-gal specific IgG titer in sera, i.n. administration [1]: increased expression
expression of various cytokines [2]: increased expression
splenic IL-2 producing cells [2]: strong expression
splenic IL-4 producing cells [2]: strong expression
antigen-specific IFNγ secreting cells [2]: increased in number
antigen-specific IL-2 secreting cells [2]: increased in number
antigen-specific IL-4 secreting cells [2]: increased in number
number of splenic IFNγ producing cells, parenteral vaccination [2]: increment
IL-6 secretion of re-stimulated spleen cells [3]: same results
IFNγ secretion of re-stimulated spleen cells [3]: strong expression; also recorded: enhanced secretion
Th1 like cytokines in antigen restimulated spleen cells ([3]; β-gal/c-diGMP versus β-gal alone (FIG. 8B)): high expression
